# According to patent publication US20070060558A1 (PALUMED S.A., priority 2004, published 2007):
# Read-outs that look alike come from different tables or passages of the source.
# Legend:
# [1] = tested on: S. pneumoniae PSSP CQI 201; test: Antibacterial activity (MIC); type: cell-based, Streptococcus pneumoniae; conditions: Streptococcus pneumoniae; S. pneumoniae PSSP CQI 201; read-out: MIC
# C. difficile CIP 104282 = test: Antibacterial activity (MIC); type: cell-based, Clostridium difficile; conditions: Clostridioides difficile, CIP104282; C. difficile CIP 104282; read-out: MIC
# [2] = tested on: S. pneumoniae PSSP CIP 6.92; test: Antibacterial activity (MIC/MBC); type: cell-based; conditions: Streptococcus pneumoniae, CIP6
# [3] = tested on: S. pneumoniae PRSP CIP 104471; test: Antibacterial activity (MIC/MBC); type: cell-based, Streptococcus pneumoniae; conditions: Streptococcus pneumoniae; for MIC: read-out: MIC
# [4] = tested on: Staphylococcus aureus MSSA 53.154; test: Murine experimental septicaemia, in vivo efficacy; design: species or system mice; conditions: sc, mice, subcutaneously at 1 and 6 h post infection, read-out: ED50
# Experimental: Experimental septicaemia was induced in mice as follows. Briefly, male Swiss OF1 mice (IFFA CREDO-Charles River) weighing 18 to 20 grams were infected intraperitoneally with 0.5 mL of a bacterial suspension containing 8.5×10^7 cfu of Staphylococcus aureus MSSA 53.154 (Institut Pasteur). The hybrid molecules were administered subcutaneously at 1 and 6 h post infection. Control and treatment groups at each dose were composed of seven mice. All the infected but untreated control mice died within 9 days. The 50% effective dose (ED50) values were calculated by a computerized program (GraphPad) from the survival rates on day 9 after infection.
# S. pyogenes CIP 56.41T = test: Antibacterial activity (MIC/MBC); type: cell-based, Streptococcus pyogenes; conditions: Streptococcus pyogenes, CIP56, S. pyogenes CIP 56.41T; for MIC: read-out: MIC
# [5] = tested on: S. pneumoniae PRSP clinical isolate; test: Antibacterial activity (MIC/MBC); type: cell-based, Streptococcus pneumoniae; conditions: Streptococcus pneumoniae; for MIC: PRSP, read-out: MIC
# [6] = tested on: E. faecalis VRE CIP 104676; test: Antibacterial activity (MIC/MBC); type: cell-based, Enterococcus faecalis; conditions: Enterococcus faecalis, E. faecalis VRE CIP 104676; for MIC: read-out: MIC
# M. catarrhalis CIP73.21T = test: Antibacterial activity (MIC/MBC); type: cell-based; conditions: Moraxella catarrhalis
# H. influenzae CIP 102514 = test: Antibacterial activity (MIC/MBC); type: cell-based, Haemophilus influenzae; conditions: Haemophilus influenzae, CIP102514
# [7] = tested on: Staphylococcus aureus MSSA CIP 4.83; test: Antibacterial activity (MIC/MBC); type: cell-based; conditions: Staphylococcus aureus, S. aureus MSSA CIP 4.83; for MBC: read-out: MBC; for MIC: read-out: MIC
# [8] = tested on: S. epidermidis MSCNS (D10); test: Antibacterial activity (MIC); type: cell-based; conditions: Staphylococcus epidermidis; S. epidermidis MSCNS (D10); read-out: MIC
# S. aureus MsrA PUL 5054 = test: Antibacterial activity (MIC); type: cell-based; conditions: Staphylococcus aureus
# [9] = tested on: S. aureus MRSA clinical isolate; test: Antibacterial activity (MIC); type: cell-based, Staphylococcus aureus; conditions: Staphylococcus aureus; S. aureus MRSA clinical isolate; read-out: MIC
# [10] = tested on: E. faecalis VRE VanB CIP106998; test: Antibacterial activity (MIC); type: cell-based; conditions: Enterococcus faecalis; E. faecalis VRE VanB CIP106998; read-out: MIC
# [11] = tested on: E. faecalis VRE VanA CIP106996; test: Antibacterial activity (MIC); type: cell-based; conditions: Enterococcus faecalis; E. faecalis VRE VanA CIP106996; read-out: MIC
# [12] = tested on: E. faecium VRE VanA CIP107387; test: Antibacterial activity (MIC); type: cell-based; conditions: Enterococcus faecium; E. faecium VRE VanA CIP107387; read-out: MIC
# [13] = tested on: S. pneumoniae PRSP (CQR 162); test: Antibacterial activity (MIC); type: cell-based; conditions: Streptococcus pneumoniae; S. pneumoniae PRSP (CQR 162); read-out: MIC
# [14] = tested on: S. epidermidis MRCNS (E93); test: Antibacterial activity (MIC); type: cell-based; conditions: Staphylococcus epidermidis; S. epidermidis MRCNS (E93); read-out: MIC
# [15] = tested on: S. aureus VISA CIP 106757; test: Antibacterial activity (MIC); type: cell-based; conditions: Staphylococcus aureus; S. aureus VISA CIP 106757; read-out: MIC
# [16] = survival on day 9, hybrid molecules formulated in water as their sodium salt
Structure (SMILES),MIC [1],MIC (C. difficile CIP 104282),MBC [2],MIC [2],MBC [3],MIC [3],"ED50 [4, 16]",MBC (S. pyogenes CIP 56.41T),MIC (S. pyogenes CIP 56.41T),MBC [5],MIC [5],MBC [6],MIC [6],MBC (M. catarrhalis CIP73.21T),MIC (M. catarrhalis CIP73.21T),MBC (H. influenzae CIP 102514),MIC (H. influenzae CIP 102514),MBC [7],MIC [7],other results
"CC(=O)NC[C@H]1CN(c2ccc(N3CCOCC3)c(F)c2)C(=O)O1 [Linezolid, reference compound]",1.25 µg/mL,0.16 µg/mL,–,–,–,–,–,–,–,–,–,–,–,–,–,–,–,–,–,–
"CC(=O)OCC1=C(C(=O)O)N2C(=O)[C@@H](NC(=O)CNc3ccnc4cc(C(F)(F)F)ccc34)[C@H]2SC1 [PA 1100, (6R,7R)-3-Acetoxymethyl-7-[2-(7-trifluoromethylquinolin-4-ylamino)-acetylamino]-8-oxo-5-thia-1-aza-bicyclo[4.2.0]oct-2-ene-2-carboxylic acid]",–,–,6 ng/mL,6 ng/mL,0.78 µg/mL,0.2 µg/mL,0.16 mg/kg,3 ng/mL,3 ng/mL,0.39 µg/mL,0.39 µg/mL,25 µg/mL,12.5 µg/mL,1.56 µg/mL,0.78 µg/mL,25 µg/mL,0.78 µg/mL,25 µg/mL,0.2 µg/mL,–
"CC(=O)OCC1=C(C(=O)O)N2C(=O)[C@@H](NC(=O)CNc3cc(C)nc4ccccc34)[C@H]2SC1 [PA 1101, (6R,7R-3-Acetoxymethyl-7-[2-2-methylquinolin-4-ylamino)acetylamino]-8-oxo-5-thia-1-aza-bicyclo[4.2.0]oct-2-ene-2-carboxylic acid]",–,–,6 ng/mL,6 ng/mL,0.78 µg/mL,0.2 µg/mL,0.13 mg/kg,1.5 ng/mL,1.5 ng/mL,0.39 µg/mL,0.2 µg/mL,25 µg/mL,25 µg/mL,0.78 µg/mL,0.78 µg/mL,12.5 µg/mL,1.56 µg/mL,25 µg/mL,0.2 µg/mL,–
CN[C@H](CC(C)C)C(=O)N[C@H]1C(=O)N[C@@H](CC(N)=O)C(=O)N[C@H]2C(=O)N[C@H]3C(=O)N[C@H](C(=O)N[C@H](C(=O)O)c4cc(O)cc(O)c4-c4cc3ccc4O)[C@H](O)c3ccc(c(Cl)c3)Oc3cc2cc(c3OC2OC(CO)C(O)C(O)C2OC2CC(C)(NCCNc3ccnc4cc(Cl)ccc34)C(O)C(C)O2)Oc2ccc(cc2Cl)[C@H]1O (some centres unmarked) [PA 1159],0.006 µg/mL,0.16 µg/mL,–,–,–,–,–,–,125 ng/mL,–,–,–,–,–,–,–,–,–,0.2 µg/mL,"MIC [8]: 0.2 µg/mL; MIC (S. aureus MsrA PUL 5054): < 0.045 µg/mL; MIC [9]: 0.1 µg/mL; ED50 ([4]; survival on day 9, hybrid molecules formulated in water as their bis(hydrochloride) salt): 0.37 mg/kg; MIC [10]: 12.5 µg/mL; MIC [11]: 1.56 µg/mL; MIC [12]: 25 µg/mL; MIC [13]: 0.025 µg/mL; MIC [14]: 0.05 µg/mL; MIC [15]: 0.2 µg/mL"
